The source made the active and inactive calls.
Legend:
[1] = target: Nuclear receptor subfamily 5 group A member 2 (Homo sapiens, UniProt O00482); assay type: functional, cell-based;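 also: HEK293T cells transfected with LRH-1 and a StAR promoter luciferase reporter; potency for inhibitors that lower LRH-1 driven reporter light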
Steroidogenic factor 1 = Steroidogenic factor 1 (Homo sapiens, UniProt Q13285); experiment: Counterscreen for inverse agonists of the liver receptor homolog-1 (LRH-1; NR5A2): Luminescence-based cell-based high throughput dose response assay to identify inverse agonists of the Steroidogenic Factor 1 Nuclear Receptor (SF1; NR5A1).; assay type: functional
Chain of Steroidogenic factor 1 (Q13285 whole entry): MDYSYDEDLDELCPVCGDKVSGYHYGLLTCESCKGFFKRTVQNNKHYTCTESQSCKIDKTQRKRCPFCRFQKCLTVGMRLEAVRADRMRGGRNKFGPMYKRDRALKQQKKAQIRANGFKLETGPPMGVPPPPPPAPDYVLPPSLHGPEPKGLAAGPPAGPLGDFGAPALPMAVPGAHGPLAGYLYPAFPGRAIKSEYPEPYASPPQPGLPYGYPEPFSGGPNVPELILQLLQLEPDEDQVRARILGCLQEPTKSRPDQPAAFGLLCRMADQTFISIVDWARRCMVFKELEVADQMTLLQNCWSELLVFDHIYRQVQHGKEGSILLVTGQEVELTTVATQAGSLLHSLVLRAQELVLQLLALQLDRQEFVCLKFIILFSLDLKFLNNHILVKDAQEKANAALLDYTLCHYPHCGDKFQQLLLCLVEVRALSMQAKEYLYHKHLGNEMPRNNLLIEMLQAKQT

[2] = nonselective StAR promoter luciferase inhibitors – cell-based, luminescence, luciferase reporter, counter-screen for LRH-1 inverse agonist project, dose response (AID 651969); assay type: functional
INS1 = experiment: INS-1E survival protection against cytokine death – cell-based, luminescence, retest, dose response (AID 449756); assay type: functional; settings: Rattus norvegicus;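 also: cell death triggered by IL-1 beta plus TNF-alpha plus IFN-gamma mixture; protective hits raise ATP signal compared with cytokine alone wells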
[3] = reduction of Shn3 3'UTR-driven luciferase in osteoblasts – cell-based, Clone20 osteoblasts, firefly luciferase, cherry-picked, dose response (AID 624132); assay type: functional;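 also: firefly luciferase luminescence from reporter carrying the Shn3 3'UTR in osteoblasts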
[4] = non-specific 3'UTR reporter inhibition in Clone20-Shn3RL – cell-based, Renilla luciferase, cherry-picked, counter-screen for Shn3 inhibitor project, dose response (AID 624133); assay type: functional
Protein Wnt-3a = Protein Wnt-3a (Mus musculus, UniProt P27467); experiment: antagonism of Wnt3a pathway luciferase reporter – Wnt-LIGHT cells, luminescence, selectivity assay for Gli-SUFU antagonist project, dose response (AID 651570); assay type: functional; settings: read-out: IC50_Mean;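 also: Wnt-LIGHT reporter cells stimulated with conditioned medium from Wnt3a-producing cells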
Chain of Protein Wnt-3a (P27467 whole entry): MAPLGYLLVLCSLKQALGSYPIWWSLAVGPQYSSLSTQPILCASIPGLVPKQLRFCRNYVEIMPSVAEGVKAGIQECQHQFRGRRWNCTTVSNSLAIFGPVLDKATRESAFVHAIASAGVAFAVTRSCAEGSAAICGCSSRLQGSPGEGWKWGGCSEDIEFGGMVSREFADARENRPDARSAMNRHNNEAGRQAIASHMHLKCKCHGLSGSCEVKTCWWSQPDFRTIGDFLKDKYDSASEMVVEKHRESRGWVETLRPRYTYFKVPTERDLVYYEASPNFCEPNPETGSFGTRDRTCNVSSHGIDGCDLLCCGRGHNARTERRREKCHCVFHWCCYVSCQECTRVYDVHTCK

[5] = decrease of insulin promoter-GFP reporter – imaging, high-content screening, mouse beta cells (AID 1628); assay type: functional; settings: MIN6
[6] = MIN6 cell viability loss – mouse insulinoma, cytotoxicity control, dose response (AID 2122); assay type: functional;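 also: confirmatory high-throughput counterscreen run to flag cytotoxic compounds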
[7] = loss of viability in HepG2 cells – cell-based, CellTiter-Glo, cherry-picked, cytotoxicity control for Shn3 inhibitor project, dose response (AID 624134); assay type: functional
[8] = Luminescence Cell-Based Dose Retest to Confirm Inhibitors of Cancer Stem Cells. [Related pubchem assays (depositor defined):AID2717, AID2721]; assay type: functional; settings: Homo sapiens
[9] = target: T1, Microphthalmia-associated transcription factor (Homo sapiens, UniProt O75030); experiment: reducers of TRPM1 reporter luminescence, concentration series – cell-based, SK-MEL-5, cherry-picked, set 3, MITF inhibitor project, dose response (AID 493073); assay type: functional;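 also: SK-MEL-5 melanoma cells with luciferase driven by the MITF target TRPM1 promoter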
T1 sequence (O75030 whole entry): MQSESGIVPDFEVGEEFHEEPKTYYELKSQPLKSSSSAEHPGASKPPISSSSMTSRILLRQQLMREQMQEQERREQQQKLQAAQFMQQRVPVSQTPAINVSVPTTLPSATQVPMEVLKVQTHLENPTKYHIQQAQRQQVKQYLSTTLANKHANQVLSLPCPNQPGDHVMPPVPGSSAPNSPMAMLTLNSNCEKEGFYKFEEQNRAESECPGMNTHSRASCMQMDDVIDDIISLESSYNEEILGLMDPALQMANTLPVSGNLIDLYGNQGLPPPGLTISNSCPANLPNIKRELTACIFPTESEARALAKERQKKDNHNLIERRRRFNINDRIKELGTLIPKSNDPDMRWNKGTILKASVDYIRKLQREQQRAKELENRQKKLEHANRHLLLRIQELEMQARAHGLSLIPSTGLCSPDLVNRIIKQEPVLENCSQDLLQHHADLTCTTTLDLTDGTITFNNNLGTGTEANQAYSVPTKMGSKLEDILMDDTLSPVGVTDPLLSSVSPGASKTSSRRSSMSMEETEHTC

Vero [10] = experiment: cells; assay type: functional, cell-based; settings: Chlorocebus sabaeus
A-375 = experiment: MITF: Counter assay: A375 proliferation Measured in Cell-Based System Using Plate Reader - 2084-03_Inhibitor_Dose_DryPowder_Activity. [Related pubchem assays (depositor defined):AID488944]; assay type: functional; settings: Homo sapiens
Vero [11] = experiment: cells; assay type: functional; settings: Chlorocebus sabaeus
HEK293 [12] = experiment: cells; settings: Homo sapiens
HEK293 [13] = experiment: cells; settings: Homo sapiens; remark: listed apart in the source
[14] = target: Induced myeloid leukemia cell differentiation protein Mcl-1 (Homo sapiens, UniProt Q07820); assay type: functional
Chain of Induced myeloid leukemia cell differentiation protein Mcl-1 (Q07820 whole entry): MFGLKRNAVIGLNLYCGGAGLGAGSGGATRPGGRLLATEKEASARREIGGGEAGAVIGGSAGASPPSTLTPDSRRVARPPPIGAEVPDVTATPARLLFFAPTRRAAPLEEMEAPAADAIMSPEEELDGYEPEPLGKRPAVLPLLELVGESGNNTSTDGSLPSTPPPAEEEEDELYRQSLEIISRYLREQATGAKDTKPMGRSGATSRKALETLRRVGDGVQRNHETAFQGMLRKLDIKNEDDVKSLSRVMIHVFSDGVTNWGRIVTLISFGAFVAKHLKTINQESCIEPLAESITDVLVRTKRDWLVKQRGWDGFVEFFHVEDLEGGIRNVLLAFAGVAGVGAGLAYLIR

[15] = target: T2, Mannose-6-phosphate isomerase (Homo sapiens, UniProt P34949); experiment: MPI inhibition at elevated mannose 6-phosphate – biochemical, fluorescence intensity, high mannose 6-phosphate, primary screen (AID 1220)
T2 sequence (P34949 whole entry): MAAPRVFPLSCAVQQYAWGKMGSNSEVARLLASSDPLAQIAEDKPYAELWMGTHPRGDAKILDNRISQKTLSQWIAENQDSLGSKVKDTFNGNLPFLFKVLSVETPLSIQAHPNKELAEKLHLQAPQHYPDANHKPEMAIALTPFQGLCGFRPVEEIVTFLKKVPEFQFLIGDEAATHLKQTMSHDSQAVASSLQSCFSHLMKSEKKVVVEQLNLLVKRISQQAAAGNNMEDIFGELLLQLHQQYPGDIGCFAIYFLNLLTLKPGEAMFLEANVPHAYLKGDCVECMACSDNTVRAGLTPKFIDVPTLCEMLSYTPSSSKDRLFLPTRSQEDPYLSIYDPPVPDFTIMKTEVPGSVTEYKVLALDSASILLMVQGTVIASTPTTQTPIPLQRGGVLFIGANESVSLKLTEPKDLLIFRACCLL

[16] = target: Glucose-6-phosphate 1-dehydrogenase (Homo sapiens, UniProt P11413); experiment: inhibition of Homo sapiens G6PD, dose series – biochemical, fluorescence, selectivity assay for P. falciparum G6PD inhibitor project, dose response (AID 504792); assay type: functional
Chain of Glucose-6-phosphate 1-dehydrogenase (P11413 whole entry): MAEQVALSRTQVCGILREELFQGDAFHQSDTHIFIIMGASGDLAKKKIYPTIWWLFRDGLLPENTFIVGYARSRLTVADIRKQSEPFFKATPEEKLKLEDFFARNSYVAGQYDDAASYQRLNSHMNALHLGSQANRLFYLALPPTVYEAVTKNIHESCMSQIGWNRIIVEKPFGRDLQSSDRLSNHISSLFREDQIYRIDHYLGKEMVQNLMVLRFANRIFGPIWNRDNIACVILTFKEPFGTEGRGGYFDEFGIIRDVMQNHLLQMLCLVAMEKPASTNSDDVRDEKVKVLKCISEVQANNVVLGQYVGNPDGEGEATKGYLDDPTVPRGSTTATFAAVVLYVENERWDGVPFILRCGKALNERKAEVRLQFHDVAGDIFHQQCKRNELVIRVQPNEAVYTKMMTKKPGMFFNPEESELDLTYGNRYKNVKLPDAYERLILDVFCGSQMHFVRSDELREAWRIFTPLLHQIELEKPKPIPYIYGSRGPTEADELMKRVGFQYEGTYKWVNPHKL

[17] = target: Eukaryotic translation initiation factor 4E (Mus musculus, UniProt P63073); experiment: blockers of eIF4G binding by eIF4E – biochemical, TR-FRET, dose response (AID 855); assay type: functional;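 also: potency for disrupting eIF4E binding to eIF4GI seen as loss of FRET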
Chain of Eukaryotic translation initiation factor 4E (P63073 whole entry): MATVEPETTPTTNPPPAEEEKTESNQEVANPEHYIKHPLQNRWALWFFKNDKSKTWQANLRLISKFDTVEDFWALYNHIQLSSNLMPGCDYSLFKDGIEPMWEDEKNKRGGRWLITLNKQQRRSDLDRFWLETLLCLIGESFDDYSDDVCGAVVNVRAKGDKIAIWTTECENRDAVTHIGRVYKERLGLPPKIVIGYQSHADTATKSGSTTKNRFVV

Nonstructural protein 1 = Nonstructural protein 1 (Influenza A virus, UniProt Q194T2); assay type: functional, Influenza A virus (A/California/07/2009(H1N1))
Chain of Nonstructural protein 1 (Q194T2 whole entry): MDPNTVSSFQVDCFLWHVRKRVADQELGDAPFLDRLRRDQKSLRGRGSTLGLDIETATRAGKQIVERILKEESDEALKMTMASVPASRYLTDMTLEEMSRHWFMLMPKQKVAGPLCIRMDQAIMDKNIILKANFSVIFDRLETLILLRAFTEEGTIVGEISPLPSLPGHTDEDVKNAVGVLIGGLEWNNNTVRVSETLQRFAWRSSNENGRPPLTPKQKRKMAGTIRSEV

Vero [18] = experiment: viability of Vero cells under compound – cytotoxicity control for flavivirus capping enzyme inhibitors (AID 588742); assay type: functional; settings: Chlorocebus sabaeus
[19] = target: T3, Apoptotic protease-activating factor 1 (Homo sapiens, UniProt O14727); assay type: functional
T3 sequence (O14727 whole entry): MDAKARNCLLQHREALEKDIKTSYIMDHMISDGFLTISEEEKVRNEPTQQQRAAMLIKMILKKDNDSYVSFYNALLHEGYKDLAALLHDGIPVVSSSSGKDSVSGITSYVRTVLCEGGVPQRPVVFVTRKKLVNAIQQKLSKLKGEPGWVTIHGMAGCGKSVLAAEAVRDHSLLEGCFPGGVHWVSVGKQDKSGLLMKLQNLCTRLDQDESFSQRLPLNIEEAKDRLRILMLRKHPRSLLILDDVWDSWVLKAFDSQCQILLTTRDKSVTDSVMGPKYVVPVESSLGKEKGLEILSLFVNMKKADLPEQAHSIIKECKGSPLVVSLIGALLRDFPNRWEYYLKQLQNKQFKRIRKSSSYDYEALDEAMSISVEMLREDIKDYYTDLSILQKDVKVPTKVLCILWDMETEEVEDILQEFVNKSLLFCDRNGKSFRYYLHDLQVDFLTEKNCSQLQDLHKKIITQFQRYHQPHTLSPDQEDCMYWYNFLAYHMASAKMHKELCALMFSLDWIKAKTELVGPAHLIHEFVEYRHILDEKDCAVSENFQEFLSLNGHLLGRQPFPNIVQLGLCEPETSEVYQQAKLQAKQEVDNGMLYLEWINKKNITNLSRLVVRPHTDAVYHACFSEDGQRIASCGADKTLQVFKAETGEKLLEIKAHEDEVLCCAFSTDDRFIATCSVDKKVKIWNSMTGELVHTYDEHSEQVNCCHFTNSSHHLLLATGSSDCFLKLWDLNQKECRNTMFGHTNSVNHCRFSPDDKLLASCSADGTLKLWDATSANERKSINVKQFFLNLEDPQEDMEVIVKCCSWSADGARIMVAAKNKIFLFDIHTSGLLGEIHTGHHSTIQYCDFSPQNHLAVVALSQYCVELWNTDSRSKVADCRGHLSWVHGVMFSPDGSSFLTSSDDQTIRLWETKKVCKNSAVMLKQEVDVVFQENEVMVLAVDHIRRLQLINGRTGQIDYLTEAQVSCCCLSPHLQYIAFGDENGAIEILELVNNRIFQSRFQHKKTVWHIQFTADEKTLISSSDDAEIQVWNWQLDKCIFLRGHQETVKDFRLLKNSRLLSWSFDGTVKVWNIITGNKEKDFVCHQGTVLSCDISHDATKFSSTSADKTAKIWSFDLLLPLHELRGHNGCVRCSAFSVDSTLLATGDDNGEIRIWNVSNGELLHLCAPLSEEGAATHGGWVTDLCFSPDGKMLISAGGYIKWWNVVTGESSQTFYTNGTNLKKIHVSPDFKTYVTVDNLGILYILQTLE

Genome polyprotein = Genome polyprotein (dengue virus type 2, UniProt P29990); experiment: flavivirus cap methylation enzyme inhibition – biochemical, confirmation dose response, primary screen (AID 588689); assay type: functional
Chain of Genome polyprotein (P29990 2492-3391 limits assumed): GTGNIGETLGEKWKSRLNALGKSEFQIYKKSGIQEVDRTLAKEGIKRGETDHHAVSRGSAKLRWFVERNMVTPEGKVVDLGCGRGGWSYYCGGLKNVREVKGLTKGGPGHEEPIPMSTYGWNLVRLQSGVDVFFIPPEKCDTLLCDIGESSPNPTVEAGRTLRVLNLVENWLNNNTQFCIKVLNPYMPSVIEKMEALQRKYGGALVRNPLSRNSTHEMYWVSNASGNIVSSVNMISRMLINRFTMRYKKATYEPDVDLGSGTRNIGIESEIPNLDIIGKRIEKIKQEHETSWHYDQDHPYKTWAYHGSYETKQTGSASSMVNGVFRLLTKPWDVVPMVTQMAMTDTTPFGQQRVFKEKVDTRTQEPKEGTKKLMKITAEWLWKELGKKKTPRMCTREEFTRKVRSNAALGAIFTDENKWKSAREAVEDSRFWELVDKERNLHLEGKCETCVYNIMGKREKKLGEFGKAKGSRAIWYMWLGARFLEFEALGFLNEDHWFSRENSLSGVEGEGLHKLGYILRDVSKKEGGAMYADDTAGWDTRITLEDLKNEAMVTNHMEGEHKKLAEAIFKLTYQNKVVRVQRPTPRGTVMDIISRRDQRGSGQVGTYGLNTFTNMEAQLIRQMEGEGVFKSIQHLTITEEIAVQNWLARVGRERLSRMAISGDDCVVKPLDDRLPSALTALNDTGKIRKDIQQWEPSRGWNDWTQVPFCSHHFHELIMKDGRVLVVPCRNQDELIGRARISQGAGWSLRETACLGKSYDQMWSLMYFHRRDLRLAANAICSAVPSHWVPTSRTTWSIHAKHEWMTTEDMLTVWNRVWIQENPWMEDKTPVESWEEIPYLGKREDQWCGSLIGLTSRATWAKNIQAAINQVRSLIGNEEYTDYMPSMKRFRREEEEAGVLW

Chain of Nuclear receptor subfamily 5 group A member 2 (O00482 whole entry): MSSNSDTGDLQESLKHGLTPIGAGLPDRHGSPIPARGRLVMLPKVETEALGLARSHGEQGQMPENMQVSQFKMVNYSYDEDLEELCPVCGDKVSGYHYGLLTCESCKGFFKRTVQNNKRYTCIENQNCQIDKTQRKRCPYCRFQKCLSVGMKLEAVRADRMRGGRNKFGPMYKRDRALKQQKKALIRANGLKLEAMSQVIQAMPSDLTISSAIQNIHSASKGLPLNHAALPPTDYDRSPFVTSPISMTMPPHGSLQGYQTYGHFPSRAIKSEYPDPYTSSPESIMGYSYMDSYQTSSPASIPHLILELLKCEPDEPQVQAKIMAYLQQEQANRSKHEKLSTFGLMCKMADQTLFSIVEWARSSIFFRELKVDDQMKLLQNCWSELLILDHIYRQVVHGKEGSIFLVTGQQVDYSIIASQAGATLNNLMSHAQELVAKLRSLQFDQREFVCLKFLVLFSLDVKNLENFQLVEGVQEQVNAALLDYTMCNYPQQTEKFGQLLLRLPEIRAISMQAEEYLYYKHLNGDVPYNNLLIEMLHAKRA

## COc1cccc(NC(=O)c2oc3ccccc3c2NC(=O)C2CC2)c1
[1]
  IC50: 35.9 µM (inactive)
Steroidogenic factor 1
  IC50: 16 µM (inactive)
[2]
  IC50: 35.9 µM (inactive)

## CCn1c(C)nc2cc(-c3nnc(-c4c(-c5ccccc5)noc4C)o3)ccc21
INS1
  AC50: 5.72 µM (active)
[3]
  AC50: 5.82 µM (active)
[4]
  AC50: 5.96 µM (active)
Protein Wnt-3a
  IC50: 2.59 µM (active)

## O=C(c1cc2sccc2n1Cc1ccccc1)N1CCN(c2nc3ccccc3s2)CC1
[5]
  IC50: 0.735 µM (active)
[6]
  IC50: 0.779 µM (active)
INS1
  AC50: 3.56 µM (active)
[3]
  AC50: 1.09 µM (active)
[7]
  AC50: 2.92 µM (active)
[4]
  AC50: 0.453 µM (active)
Protein Wnt-3a
  IC50: 2.68 µM (active)

## N#C/C(=C\C=C\c1ccccc1[N+](=O)[O-])C(=O)NC1CCCCC1
[8]
  AC50: 5.33 µM (active)
[9]
  AC50: 7.8 µM (active)
Vero [10]
  IC50: 17 µM (active)
A-375
  AC50: 25.9 µM (active)
Vero [11]
  CC50: > 25 µM (active)
HEK293 [12]
  EC50: > 59.7 µM (inactive)
HEK293 [13]
  EC50: > 59.7 µM (inactive)

## CCOc1cc(CNc2ccc(N3CCCC3)cc2)cc(Cl)c1OC
[14]
  IC50: 2.43 µM (not active)
[15]
  IC50: 8.91 µM (active)
[16]
  IC50: > 80 µM (inactive)
[17]
  IC50: > 64 µM (inactive)
Nonstructural protein 1
  IC50: 20.7 µM (active)
Vero [18]
  CC50: > 40 µM (active)
[19]
  IC50: > 100 µM (inactive)
Genome polyprotein
  IC50: 48.2 µM (active)
